Assay type in all cases: cell-based, human
Assay [1] concerns NF-κB. The assay can be described thus: EMSA of constitutive nuclear NF-κB DNA binding, LNCaP. As to conditions: LNCaP prostate carcinoma; catalase 3,000 U/ml for 24 hours. On the procedure: (§1) The effect of antioxidants on nuclear activation of NF-κB was studied by incubating near confluent (70%) cell cultures with antioxidant treatments for 1-48 hours. Nuclear protein was harvested, and EMSAs were performed using DNA consensus binding sequences, or nuclear translocation of the p65 component of NF-κB was studied by immunoperoxidase staining, as outlined below.
(§2) Electrophoretic Mobility Shift Assays (EMSAs). Nuclear protein was isolated and DNA binding reactions were performed as previously described in detail, Kennedy et al., Am. J. Respir. Cell Mol. Biol. 19:366-378 (1998). Monolayers were washed twice in cold DPBS and equilibrated 10 min on ice with 0.7 ml cold cytoplasmic extraction buffer, CEB (10 mM Tris, pH 7.9, 60 mM KCl, 1 mM EDTA, 1 mM DTT) with protease inhibitors, PI (1 mM Pefabloc, 50 μg/ml antipain, 1 μg/ml leupeptin, 1 μg/ml pepstatin, 40 μg/ml bestatin, 3 μg/ml E-64 and 100 μg/ml chymostatin). […] DNA-protein binding reactions were performed with 2 μg of nuclear protein (as determined by the Pierce method) and 30-80,000 cpm of ^32P-end-labelled double-stranded DNA probe in 10 mM Tris-HCl, pH 7.5, 50 mM NaCl, 0.5 mM EDTA, 0.5 mM DTT, 1 mM MgCl2, 50 μg/ml poly dI-dC, and 4% glycerol. […] Gels were dried and analyzed by autoradiography at −80° C. using an image intensifier screen. […]
For orientation: A gel shift assay detects complexes by their altered migration in electrophoresis.

Assay [2] has as its system NF-κB. The assay can be described thus: EMSA of constitutive nuclear NF-κB DNA binding, MDA-MB-453. As to conditions: MDA-MB-453 breast carcinoma; catalase 3,000 U/ml for 24 hours. On the procedure:
as §1, §2

For assay [3], the system named is phosphorylated IκBα (IκBα-P). In words: Immunoassay for phosphorylated IκBα. The note with it: M1619; catalase 3,000 U/ml for 24 hours. On the procedure: The effect of antioxidants on expression of cell cyclins, cyclin-associated kinases, cell cycle inhibitors and IκBα was studied by incubating near confluent cell cultures with antioxidant treatments for 15 min-48 hours. Cells were lysed and protein levels were measured by immunoblot assay as described below. In other experiments, the ratio of phosphorylated-IκBα to total IκBα was determined by harvest of cytosolic protein 24 hours after treating cultures with 3,000 U/ml catalase.
The NF-κB inhibitor IκBα and phosphorylated IκBα were assayed with several modifications of the above procedure. Cells were lysed in boiling buffer to which 50 mM DTT had been added as a reducing agent. Immunoassay of IκBα. proceeded as above, but samples for measurement of phosphorylated IκBα were blocked 2 hours at room temperature and incubated overnight at 4° C. with primary phospho-specific antibodies diluted 1:1000 in PBS with 0.1% Tween and 5% BSA.
M1619 cells either treated with catalase with 3,000 U/ml for 24 hours or untreated were used in immunoassays for phosphorylated IκBα (IκBα-P) using phospho-specific antibody as described above.
Mean ratios of the densitometrically determined sum intensities of IκBα-P staining in the immunoassay experiments are shown in FIG. 5B.

In a further assay the test system is M1619 cells. In words: DNA cell cycle analysis by flow cytometry. The note with it: 3,000 U/ml catalase, 24 hours. On the procedure:
DNA Cell Cycle Measurements. To study the effect of antioxidant treatments on the DNA cell cycle, cells were grown to near confluence in 25 cm^2 plastic flasks and treated for 24 hours. Cells were typsinized, washed twice in cold DPBS with 1 mM EDTA and 1% bovine serum albumin (BSA), fixed 30 min in ice-cold 70% ethanol, and stained by incubation for 30 min at 37° C. in a 10 μg/ml solution of propidium iodide in DPBS and 1 mg/ml RNase A. DNA cell cycle measurements were made using a FACStar^PLUS Flow Cytometer (Becton-Dickenson, San Jose, Calif.).
Near confluent monolayers of M1619 cells were incubated in RPMI 1640 and 10% FBS in the presence or absence of 3,000 U/ml catalase. After 24 hours, cells were harvested, ethanol-fixed, permeabilized with proteinase K, stained with propidium iodide and subjected to DNA cell cycle analysis. Whereas a large fraction (30.2%) of untreated cells (FIG. 6A) were tetraploid, only 12.8% of catalase-treated cells (FIG. 6B) were tetraploid. […] G2-M was hidden by tetraploid G0-G1 or by debris and could not be analyzed.
A general note: In flow cytometry, cells or beads pass a laser one at a time.

Consider Catalase, for which the “constitutive nuclear DNA binding activity for NF-κB” value in the assay on NF-κB [1] and with NF-κB [2] was “suppressed” each time. Also, in assay [3], the “amount of IκBα that is phosphorylated” value is reported as “decreases”. Further, the “fraction of cells tetraploid” value with M1619 cells (untreated 30.2%) was determined as 12.8%. In addition, the “total percentage of cells in S-phase” value in the assay with M1619 cells (untreated 41.2%) was 56.7%.

Values taken from patent publication US20070142462A1, “Method of Treating Cancer” (The University of Utah, priority 2000, published 2007).
